Results on two compounds are retold here after patent publication US6541453B2, “Peptide derivatives” (Syngenta Limited, priority 1996, dated 2003).

Like-named read-outs stand apart in the source and are kept apart here.

The target of one data set is T1, HLA-DR1 (Homo sapiens, UniProt P01903+P01911, A100R/D57E/F55L/F60I/F76Y/I96L/L162R/M171V/P40L/Q125E/R42F/V115G/Y59C).
T1 construct: endogenous in cells; host or cells: Hom 2 cell line
The data set can be described thus: Variant to Test A: peptide selectivity binding assay. How it is done: The method used was a modification of that described by Gorga et al, 1987, J.Biol.Chem. 262, 16087-16094. Human HLA-DR antigens were purified from various cell lines by immunoaffinity chromatography. Briefly, 1×10^9-5×10^9 pelleted cells of the appropriate cell line selected from Hom 2 (source of DR1), BBF (source of DR2), AVL-B (source of DR3), JAH (source of DR4Dw4), JHAF (source of DR4Dw13) or PE117 (source of DR4Dwl4) were solubilised at approximately 4° C. in 50 ml of 5 mM EDTA (sodium salt), 50 mM Tris-HCL pH 7.4, 2% NP40, 150 mM NaCl, 1 mM iodoacetamide, 1 mM PMSF, by homogenisation with 10 strokes of a teflon glass homogeniser. […] Protein content was determined by a Biorad protein assay and purity by SDS-PAGE electrophoresis.
200 nM biotin-FHA307-320 in phosphate buffered saline (PBS) was incubated with either purified HLA-DR1, DR2, DR4Dw4, DR4Dw13 or DR4Dwl4 (2-20 μg/ml) in V-well microtitre plates (Nunc) with or without inhibitor peptides in assay buffer (PBS, 0.01% NP40 (Sigma.)) For DR3 inhibition, 400 nM Biotin-Ahx-(D)Ala-Ala-Ala-Cha-[…](D)Ala-OH [SEQ ID No. 14] was incubated with purified DR3 (20 μg/ml.), and incubated as above. After 48 hours, the incubates were treated, and absorbance readings taken as described in Test A. The inhibitory activity of peptides, expressed as IC50 values, was calculated using Microcal Origin software on a PC.

Data set [1] in a line: Peptide content of extruded polymer depot formulation (loss on extrusion). It counts as physicochemical. How it is done: About 20 mg of peptide is accurately weighed and sufficient polymer (50/50% molar poly(D,L-lactic acid/glycolic acid) copolymer of approximate weight average molecular weight 20 kD and approximate polydispersity of 1.7 as determined by size exclusion chromatography relative to polystyrene standards) added to produce an approximate 20% w/w mixture. This is dissolved in anhydride-free glacial acetic acid to produce an approximate 10% w/v solution. The solution is freeze dried and the resulting freeze dried product is stored under vacuum prior to use.
About 100 mg of freeze dried material is loaded into the barrel of a small laboratory extruder and the plunger pushed down to consolidate the sample. The extruder is heated to between 90 and 95 ° C. and held at this temperature for 10 minutes before the freeze dried material is extruded under pressure to give a cylindrical extrudate of approximately 1 mm in diameter. […]
Each standard is filtered through a 5 μm Millex PTFE filter and an aliquot of filtrate, together with aliquots of the solutions A, analysed by HPLC using duplicate sample injections. The peptide content of the extruded polymer depot formulation of peptide is calculated from the concentration of peptide in solutions A, which is determined by comparing the area of the peptide peak in solutions A with the area of the peptide peak from the standard solutions.

The nature of data set [2]: Aqueous stability of peptide in McIlvaine's citric acid-phosphate buffer.
Protocol: Approximately 20 ml of McIlvaine's citric acid-phosphate buffer solution at pH 3 or 7.6 containing 0.02% sodium azide is filtered into a 50 ml bottle using a sterile 0.22 μm filter unit and a 20 ml syringe. Approximately 1.2 mg of peptide is accurately weighed in a capped vial. […] The vial is capped and shaken to dissolve the peptide. Using a sterile pipette tip, aliquots of approximately 1 ml of the peptide solution are transferred to 10 HPLC vials, which are then capped. 5 vials are stored at −18 and 37° C. The area of the peptide peak for the solution is determined by HPLC using appropriate standards initially and after storage at −18 and 37° C. for 1, 2, 3 and 4 weeks, using a fresh vial at each time point with duplicate sample injections. The percentage of peptide remaining after storage at 37° C. at each time point is determined from the ratio of the area of the peptide peak at each time point to the initial area.
The nature of data set [3]: Degradation of peptide on in vitro release from an extruded polymer depot.
Protocol: A solution of McIlvaine's citric acid-phosphate buffer solution at pH 7.6 containing 0.02% sodium azide, is filtered through a 0.22μ filter and stored at 4° C. Approximately 10 mg of extruded polymer depot containing peptide is placed in two small vials and 2 ml of the buffer solution added. The vials are then capped and stored in a water bath at 37° C. for a month. At suitable time points over a month, three 0.6 ml aliquots of release medium are removed from each vial and either analysed by HPLC or stored frozen in an HPLC vial at −18° C. prior to analysis by HPLC. 1.8 ml of the buffer solution is added to each vial containing the depot to replace the release medium that has been removed at each time point.
The average amount of intact peptide in the release medium at each time point is determined by HPLC using duplicate sample injections by comparing the area of the peptide peak in the release media with the area of the peptide peak from standard buffer solutions of peptide at known concentrations. […] The average cumulative in vitro release profile of intact peptide and total peptide (intact peptide and peptide degradation products) is determined from the amounts of intact peptide and peptide degradation products in the release medium at each time point.

For the compound `COCCN(CCOC)C(=O)CN(CC(=O)N(CCOC)CCOC)C(=O)C[C@H](NC(=O)[C@H](C)NC(=O)[C@H](CCCNC(=N)N)NC(=O)[C@H](C)NC(=O)CCCCc1ccccc1)C(=O)N[C@H](C(=O)N[C@@H]1CCN([C@@H](C)C(=O)N[C@@H](C)C(=O)Nc2ccc(CC(N)=O)cc2)C1=O)[C@@H](C)O` [Example 3, Phv-Ala-Arg-Ala-II-Thr-IIIa-Ala-Papa-NH2], the 50% inhibitory concentration (IC50) (in general, the concentration at which inhibition is half-maximal) at HLA-DR1 was > 100 µM. In addition, the “loss due to degradation on extrusion” value in data set [1] was “minimal loss due to degradation on extrusion”. The aqueous stability entry in data set [2] (pH3) and in data set [2] (pH7.6) was “good aqueous stability” throughout. Besides, the “degradation on release from depot formulation” value in data set [3] is “minimal degradation on release”.

As to `COCCOCCOCCN(CCOCCOCCOC)C(=O)CN(CC(=O)N(CCOCCOCCOC)CCOCCOCCOC)C(=O)C[C@H](NC(=O)[C@H](C)NC(=O)[C@H](C)NC(=O)[C@H](CCCNC(=N)N)NC(=O)CCCCc1ccccc1)C(=O)N[C@H](C(=O)N[C@@H]1CCN([C@@H](C)C(=O)N[C@@H](C)C(=O)Nc2ccc(CC(N)=O)cc2)C1=O)[C@@H](C)O` [Example 6, Phv-Arg-Ala-Ala-II-Thr-IIIa-Ala-Papa-NH2], the half-maximal inhibitory concentration (IC50) at HLA-DR1 was > 100 µM. Further, the “loss due to degradation on extrusion” value in data set [1] is listed as “minimal loss due to degradation on extrusion”. Further, the aqueous stability result reads like this: (pH3) “good aqueous stability”; (pH7.6) “good aqueous stability”.
